Test results reported in ChEMBL document CHEMBL4359833, “Philanthotoxin Analogues That Selectively Inhibit Ganglionic Nicotinic Acetylcholine Receptors with Exceptional Potency” (J Med Chem, 2019).

Tests used:
Assay type in all cases: cell-based
[1] = molecular target: T1, Neuronal acetylcholine receptor; alpha3/beta4 (Homo sapiens, UniProt P30926+P32297); experiment: Antagonist activity at alpha3beta4 nAChR (unknown origin) expressed in Xenopus laevis oocytes assessed as inhibition of Ach-induced channel activation at -100 mV holding potential treated for 1 min by two electrode voltage-clamp assay
[2] = organism: Homo sapiens; experiment: Selectivity ratio of IC50 for alpha4beta2 nAChR (unknown origin) expressed in Xenopus laevis oocytes to IC50 for alpha3beta4 nAChR (unknown origin) expressed in Xenopus laevis oocytes
[3] = molecular target: T2, Neuronal acetylcholine receptor; alpha4/beta2 (Homo sapiens, UniProt P17787+P43681); experiment: Antagonist activity at alpha4beta2 nAChR (unknown origin) expressed in Xenopus laevis oocytes assessed as inhibition of Ach-induced channel activation at -100 mV holding potential treated for 1 min by two electrode voltage-clamp assay
[4] = molecular target: T2, Neuronal acetylcholine receptor; alpha4/beta2; experiment: Antagonist activity at alpha4beta2 nAChR (unknown origin) expressed in Xenopus laevis oocytes assessed as inhibition of Ach-induced channel activation at -100 mV holding potential treated for 1 min by two electrode voltage-clamp assay relative to PhTX-343 IC50
[5] = molecular target: T1, Neuronal acetylcholine receptor; alpha3/beta4; experiment: Antagonist activity at alpha3beta4 nAChR (unknown origin) expressed in Xenopus laevis oocytes assessed as inhibition of Ach-induced channel activation at -100 mV holding potential treated for 1 min by two electrode voltage-clamp assay relative to PhTX-343 IC50

T1 sequence (P30926 whole entry): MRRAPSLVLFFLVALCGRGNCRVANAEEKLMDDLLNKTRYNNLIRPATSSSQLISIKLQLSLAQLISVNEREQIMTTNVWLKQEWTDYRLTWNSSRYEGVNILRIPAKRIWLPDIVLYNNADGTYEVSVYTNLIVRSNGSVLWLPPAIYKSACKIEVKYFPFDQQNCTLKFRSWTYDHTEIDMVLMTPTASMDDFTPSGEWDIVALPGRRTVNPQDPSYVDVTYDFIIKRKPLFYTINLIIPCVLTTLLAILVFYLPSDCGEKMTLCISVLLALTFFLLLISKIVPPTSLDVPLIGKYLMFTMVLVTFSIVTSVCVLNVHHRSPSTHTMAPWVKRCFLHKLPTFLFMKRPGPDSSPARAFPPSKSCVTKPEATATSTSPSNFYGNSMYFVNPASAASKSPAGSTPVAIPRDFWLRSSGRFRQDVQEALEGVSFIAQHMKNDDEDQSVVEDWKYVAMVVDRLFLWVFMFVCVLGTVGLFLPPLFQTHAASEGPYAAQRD
T1 sequence (P32297 whole entry): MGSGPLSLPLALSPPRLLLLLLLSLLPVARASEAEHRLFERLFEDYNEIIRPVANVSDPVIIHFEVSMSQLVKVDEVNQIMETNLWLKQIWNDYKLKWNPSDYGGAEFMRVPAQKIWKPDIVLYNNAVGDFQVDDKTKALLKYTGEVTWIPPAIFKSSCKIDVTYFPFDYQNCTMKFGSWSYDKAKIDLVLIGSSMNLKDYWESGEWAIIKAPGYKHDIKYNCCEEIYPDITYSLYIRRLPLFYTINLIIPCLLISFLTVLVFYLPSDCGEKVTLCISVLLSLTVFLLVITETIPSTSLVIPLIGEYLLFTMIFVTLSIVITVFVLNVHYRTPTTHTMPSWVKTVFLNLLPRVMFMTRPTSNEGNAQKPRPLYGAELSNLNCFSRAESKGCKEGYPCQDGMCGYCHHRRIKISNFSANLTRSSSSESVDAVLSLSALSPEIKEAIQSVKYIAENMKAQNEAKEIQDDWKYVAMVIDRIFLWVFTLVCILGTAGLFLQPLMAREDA
T2 sequence (P17787 whole entry): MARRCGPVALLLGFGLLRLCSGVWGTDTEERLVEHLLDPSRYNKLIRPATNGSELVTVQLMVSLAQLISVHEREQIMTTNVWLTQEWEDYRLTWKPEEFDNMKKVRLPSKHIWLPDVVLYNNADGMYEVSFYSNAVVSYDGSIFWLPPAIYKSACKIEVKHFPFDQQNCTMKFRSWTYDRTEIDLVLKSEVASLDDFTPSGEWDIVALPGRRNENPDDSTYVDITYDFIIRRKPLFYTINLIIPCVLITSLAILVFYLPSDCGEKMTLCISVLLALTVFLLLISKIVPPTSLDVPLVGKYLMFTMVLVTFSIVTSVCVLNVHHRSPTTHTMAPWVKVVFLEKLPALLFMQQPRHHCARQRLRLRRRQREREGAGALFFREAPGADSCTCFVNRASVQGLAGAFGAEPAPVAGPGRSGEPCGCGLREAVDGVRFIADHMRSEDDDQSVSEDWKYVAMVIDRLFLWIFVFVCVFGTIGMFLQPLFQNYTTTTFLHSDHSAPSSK
T2 sequence (P43681 whole entry): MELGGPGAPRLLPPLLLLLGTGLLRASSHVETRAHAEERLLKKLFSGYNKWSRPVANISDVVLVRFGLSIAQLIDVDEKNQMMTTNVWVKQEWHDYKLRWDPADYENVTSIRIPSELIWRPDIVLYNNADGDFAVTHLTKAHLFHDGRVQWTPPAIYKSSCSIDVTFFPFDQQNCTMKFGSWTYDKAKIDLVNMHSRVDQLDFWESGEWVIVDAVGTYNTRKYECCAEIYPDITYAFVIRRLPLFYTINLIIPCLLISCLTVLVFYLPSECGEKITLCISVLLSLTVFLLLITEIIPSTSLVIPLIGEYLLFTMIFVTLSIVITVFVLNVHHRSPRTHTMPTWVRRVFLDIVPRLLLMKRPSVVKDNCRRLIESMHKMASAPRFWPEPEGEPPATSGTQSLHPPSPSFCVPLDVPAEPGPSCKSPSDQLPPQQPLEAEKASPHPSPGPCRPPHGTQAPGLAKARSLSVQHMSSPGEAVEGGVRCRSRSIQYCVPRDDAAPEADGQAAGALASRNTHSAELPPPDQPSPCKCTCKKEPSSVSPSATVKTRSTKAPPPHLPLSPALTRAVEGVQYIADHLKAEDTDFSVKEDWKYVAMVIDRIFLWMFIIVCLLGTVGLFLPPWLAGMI

Row | Structure (SMILES) | IC50 [1] [nM] | Ratio IC50 [2] | IC50 [3] [nM] | Ratio IC50 [4] | Ratio IC50 [5]
1 | CCCC(=O)N[C@@H](Cc1ccc(O)cc1)C(=O)NCCCNC[C@H]1C[C@H]1CNCCCN | 1.44 | 32.9 | 47.4 | 1.7 | 5.3
2 | NCCCNCCCCNCCCNC(=O)[C@H](CC1CCCCC1)NC(=O)/C=C/c1ccccc1 | 0.35 | 34.6 | 12.1 | 6.6 | 21.9
3 | CCCC(=O)N[C@@H](Cc1ccccc1)C(=O)NCCCNCCCCNCCCN | 0.93 | 29.9 | 27.8 | 2.9 | 8.2
4 | CCCC(=O)N[C@@H](Cc1ccc(O)cc1)C(=O)NCCCNCCCCNCCCN [PHILANTHOTOXIN 343] | 7.65 | 10.5 | 80.2 |  | 
5 | NCCCNCCCCNCCCNC(=O)[C@H](CC1CCCCC1)NC(=O)c1ccccc1 | 0.37 | 57.8 | 21.4 | 3.7 | 20.7
6 | NCCCNCCCCNCCCNC(=O)[C@H](Cc1ccc(O)cc1)NC(=O)C1CCCCC1 | 0.46 | 79.6 | 36.6 | 2.2 | 16.6
7 | CCCC(=O)N[C@@H](Cc1ccc(O)cc1)C(=O)NCCCNC[C@@H]1C[C@H]1CNCCCN | 0.92 | 48.2 | 44.3 | 1.8 | 8.3
8 | NCCCNCCCCNCCCNC(=O)[C@H](CC1CCCCC1)NC(=O)C1CC1 | 2.63 | 42.6 | 112 | 0.7 | 2.9
9 | NCCCNCCCCNCCCNC(=O)[C@H](Cc1ccc(O)cc1)NC(=O)C1CCCC1 | 0.57 | 39.5 | 22.5 | 3.6 | 13.4
10 | NCCCNCCCCNCCCNC(=O)[C@H](CC1CCCCC1)NC(=O)c1ccc(-c2ccccc2)cc1 | 2.83 | 9.1 | 25.8 | 3.1 | 2.7
11 | NCCCNCCCCNCCCNC(=O)[C@H](CC1CCCCC1)NC(=O)C1CCCCCC1 | 0.55 | 51.3 | 28.2 | 2.8 | 13.9
12 | CCCC(=O)N[C@@H](CCc1ccccc1)C(=O)NCCCNCCCCNCCCN | 1.74 | 12 | 20.8 | 3.9 | 4.4
13 | NCCCNCCCCNCCCNC(=O)[C@H](CC1CCCCC1)NC(=O)Cc1cccc2ccccc12 | 0.16 | 91.3 | 14.6 | 5.5 | 47.8
14 | NCCCNCCCCNCCCNC(=O)[C@H](CC1CCCCC1)NC(=O)C1CCCC1 | 0.65 | 8.4 | 5.43 | 14.8 | 11.8
15 | CCCC(=O)N[C@@H](CC1CCCCC1)C(=O)NCCCNCCCCNCCCN | 2.62 | 1 | 2.58 | 31.1 | 2.9
16 | NCCCNCCCCNCCCNC(=O)[C@H](CC1CCCCC1)NC(=O)C1CCC1 | 1.07 | 19.4 | 20.8 | 3.9 | 7.1
17 | NCCCNCCCCNCCCNC(=O)[C@H](CC1CCCCC1)NC(=O)C1CCCCC1 | 2.19 | 14.3 | 31.4 | 2.6 | 3.5
18 | NCCCNCCCCNCCCNC(=O)[C@H](CC1CCCCC1)NC(=O)CC1CC2CCC1C2 (stereo partly drawn) | 0.95 | 26.9 | 25.6 | 3.1 | 8.1
